# Experiments:
# [1] = Processability of VLPs by anion exchange chromatography (aggregation by NAGE); format: physicochemical; conditions: DEAE resin, pH 9.0, NaCl elution
# Description: To test the processability of prior art CMV-Ntt830 VLPs with anion exchange chromatography (AEX), sucrose gradient purified VLPs were prepared as described in Examples 2-4 of WO2016/062720A1. Five mls of CMV-Ntt830 VLPs (1 mg/ml) were buffer exchanged into 5 mM sodium borate pH 9 and loaded onto a 1.0 ml Macro-Prep DEAE Bio-Rad anion exchange cartridge equilibrated with the same buffer. After the loading step, the concentration of NaCl in the elution buffer was increased in step-wise manner (0.1, 0.2, 0.3, 0.4, 0.5, 0.8., 1.0 and 2.0 M). Fractions were collected and measured at 260 nm using Nanodrop spectrophotometer to measure protein and subjected to native agarose gel electrophoresis (NAGE).
# In contrast, non-aggregated CMV-Ntt830-E4 VLPs could be readily purified from a crude lysate using AEX. Clarified lysate prepared from E. coli expressing CMV-Ntt830-E4 VLPs (as described in Example 1) in 50 mM citrate, 5 mM Borate buffer pH 9.0 was loaded onto 60 ml of Fracto-DEAE (Merck) in an XK 26/20 column equilibrated with the same buffer and eluted by applying a continuous NaCl gradient from 0 to 1.0 M in the same buffer. The eluate was monitored at A260 nm to measure protein and conductivity measured to monitor salt concentration. The clarified lysate, flow-through and fractions were collected and subjected to NAGE and SDS-PAGE.
# [2] = Thermal shift assay with SYPRO Orange (thermal stability of VLPs); format: physicochemical; conditions: 0.5 mg/ml VLPs in 5 mM Na phosphate, 2 mM EDTA, pH 7.5, real-time PCR system
# Description: A thermal shift assay involving temperature-induced denaturation and the fluorescent dye SYPRO® Orange (Sigma, Saint Louis, USA) was used for this purpose. The dye is a naturally quenched in solution but as the VLPs denature with increasing temperatures, SYPRO® Orange interacts with exposed hydrophobic amino acids and cores and emits a fluorescent signal, which is measured by fluorometry. From the resultant melting curve (fluorescent signal vs temperature), the melt peak curves and melting temperature were determined. Solutions containing 0.5 mg/ml of sucrose density gradient purified (as described in Example 1 above) CMV-Ntt830 VLPs or CMV-Ntt830-E4 VLPs in 5 mM Na phosphate, 2 mM EDTA, pH 7.5 were assayed with a real-time PCR system MJ Mini (Bio-Rad, Hercules, USA) using a DNA melting point determination program. Data were analysed using Opticon Monitor Software and melting curves processed at a smooth setting of four.
# [3] = Ionic strength/salt stability of VLPs in NaCl, native agarose gel electrophoresis; format: physicochemical; conditions: NaCl concentrations up to 0.4 M, room temperature, 0.5 mg/ml, pH 7.5
# Description: FIG. 12: Stability of CMV-Ntt830 VLPs and CMV-Ntt830-E4 VLPs in solution in the presence of different NaCl concentrations. Samples of CMV-Ntt830 VLPs and CMV-Ntt830-E4 VLPs at 0.5 mg/ml were incubated at room temperature in 5 mM Na phosphate, 2 mM EDTA, pH 7.5 with different concentrations of NaCl (the molar concentration of NaCl in each sample is indicated at the bottom of the gels) for up to 2 hours. Samples were analysed by native agarose gel electrophoresis and ethidium bromide staining. Panels A and B show NAGE analysis of CMV-Ntt830 VLP and CMV-Ntt830-E4 VLPsamples respectively. […] Black arrows indicate the position of loading wells within the gels and location of VLPs within the wells and gels. The presence of CMV-Ntt830 VLPs in the loading wells after electrophoresis (panel A) is due to the formation of VLP aggregates which are too large to enter the gel. Integral unaggreagted VLPs migrated into the gel.
# The relative stabilities of CMV-Ntt830 VLPs and CMV-Ntt830-E4 VLPs to NaCl were tested by incubating purified VLPs (0.5 mg/ml in 5 mM Na phosphate, 2 mM EDTA, pH 7.5) at room temperature with various NaCl concentrations.
# [4] = system: kaolin-induced inflammation in the hind paw; assay: Kaolin model of acute inflammatory pain, lameness score; format: in vivo, dog
# Description: Kaolin-induced inflammation in the hind paw was performed based on the model described in “Paw inflammation model in dogs for preclinical pharmacokinetic/pharmacodynamic investigations of nonsteroidal anti-inflammatory drugs” (Jeunesse et al., 2011, J Pharmacol Exp Ther., 338 (2): 548-58). Briefly, the dogs were anaesthetized with an intravenous administration of propofol (Propovet, 6.5 mg/kg, Zoetis, France) and kaolin was injected subcutaneously on one paw. On D42, the injections were performed on the right hind paw of all dogs.
# Lameness score was assessed on a typical course made by each dog using a numerical rating scale initially developed by Giraudel et al. (Giraudel J M et al., 2005, Br J Pharmacol 146:642-653; Giraudel J M et al., 2005, J Vet Pharmacol Ther 28:275-285) on cats and adapted by Jeunesse et al. (Jeunesse et al., 2011, J Pharmacol Exp Ther., 338 (2): 548-58). […] Lameness score was assessed on live and separately on videos by a different operator. […]
# [5] = system: canine NGF protein; assay: NGF total IgG ELISA in dog sera, kaolin study (Example 7); format: in vivo; conditions: study day 42; vaccine 250 μg s.c. D0 and D21; bedinvetmab s.c. once D35
# Description: (§1) The range of the actual doses of bedinvetmab administered was 0.52-0.97 mg/kg in line with the product information of the marketing authorization. • For the Vaccine group, the dogs received the inventive vaccine candidate, cNGF-CMV-Ntt830-E4 VLP, twice subcutaneously at the back of the neck on day 0 (DO) and day 21 (D21) at the dose of 250 μg VLP-NGF/dog.
# Blood samples for serology were collected at the following time points on DO, D21, D70, D84, D105 and D119 for the Vaccine and the Placebo groups only, on D35 for the Librela® group only, on D42 and on D56 for the three group. Blood samples were centrifuged and the serum decanted into three aliquots per sample.
# NGF- and cNGF-CMV-Ntt830-E4 VLP total specific IgG antibodies in sera were measured by ELISA. ELISA plates were coated with recombinantly produced canine NGF protein (1.0 μg/mL) or cNGF-CMV-Ntt830-E4 VLP (2.0 μg/mL). Serum samples were pre-diluted 1:100, transferred to the ELISA plates and subjected to serial dilutions 3-fold serial dilution steps with a total of 11 dilutions being tested per serum sample. […] Relative concentrations of anti-NGF IgG antibody in the serum (μg/mL) were calculated by multiplying the EC50 values of the serum with the EC50 values determine for the Bedinvetmab standard. […]
# [6] = system: canine NGF protein; assay: NGF total IgG ELISA in dog sera, ACLT+PMM chronic pain study (Example 8); format: in vivo; conditions: day 203 sera, group B, monthly s.c. administration
# Description: NGF- and cNGF-CMV-Ntt830-E4 VLP total specific IgG antibodies in sera were measured by ELISA. ELISA plates were coated with recombinantly produced canine NGF protein (1.0 μg/mL) or cNGF-CMV-Ntt830-E4 VLP (2.0 μg/mL). Serum samples were pre-diluted 1:100, transferred to the ELISA plates and subjected to serial dilutions 3-fold serial dilution steps with a total of 11 dilutions being tested per serum sample. Following incubation, horse-radish peroxidase-(HRP-) labelled goat anti-dog IgG (Jackson ImmunoResearch, cat no 304-035-008, lot 156911) was added. After 2 hours incubation at room temperature, the plates were washed 4 times with 1×PBS/0.05% (v/v) Tween 20. […] Serum titers of samples at different time points were defined and depicted as the EC50 values of the curve fit. Titers below the detection limit of the assay were set to 100 for anti-CMV IgG respectively 50 for anti-NGF IgG, half of the lowest dilution factor (1:200 respectively 1:100) used in the assay. Bedinvetmab was used as a standard in the NGF IgG ELISA. Relative concentrations of anti-NGF IgG antibody in the serum (μg/mL) were calculated by multiplying the EC50 values of the serum with the EC50 values determine for the Bedinvetmab standard. Neutralization titers below the detection limit of the assay were set the equivalent monoclonal antibody concentration of the EC50 value of 50. […]
# [7] = biological target: T1, hNGF binding to TrkA (Homo sapiens, UniProt P01138); assay: TrkA based NGF binding ELISA, ACLT+PMM study; format: biochemical; conditions: day 203, group B, 6 days after administration
# T1 construct: 5 ng/ml human mature NGF (R&D, 256-GF-100/CF); purchased R&D (hNGF); SinoBio (TrkA) 256-GF; 11073-H08H
# Description: ELISA plates were coated with 100 μL/well of 0.5 μg/mL TrkA (SinoBio 11073-H08H) in PBS over night at +4° C. After washing with PBST, plates were blocked using 200 μL/well SuperBlock (ThermoScientific 37518) for 1 hour at room temperature. Serum samples or positive control antibody (caninized monoclonal anti-canine NGF antibody bedinvetmab, Zoetis) were diluted in 2% BSA/PBST and incubated with 1.25 ng/ml hNGF (R&D 256-GF) for 1 hour. After washing the ELISA plates, serum/NGF solution was added to the plates. Plates were incubated for 1 hour at room temperature, washed and HRP-labelled rabbit anti-NGF antibody (SinoBio 11050-RP02-H) at a concentration of 1.5 μg/mL was added. After the plates were washed 4 times with 1×PBS/0.05% (v/v) Tween 20, TMB substrate (ThermoScientific 3401) as the HRP substrate and development reaction was stopped by addition of 2M H2SO4. OD values at 450 nm were measured using a microplate reader (TecanSpark). […] Using a 4-Parameter logistic regression curve fit model the IC50 values, the dilution factor corresponding to half maximum OD 450 nm values, were determined. […] Relative concentrations of neutralizing antibody in the serum (μg/mL) were calculated by multiplying the IC50 values of the serum with the IC50 values determine for the bedinvetmab standard (μg/mL). […]
# [8] = biological target: human beta-NGF (Homo sapiens, UniProt P01138); assay: TF-1 cell based NGF neutralization bioassay, kaolin study
# Description: as §1
# Heat-inactivated (56° C. 30 min), serial-diluted sera or antibody standard (canonized monoclonal anti-canine NGF antibody bedinvetmab, Zoetis) were incubated with 5 ng/mL human beta-NGF for 1 hour at room temperature. The NGF-sera/antibody solution was then added to […] starved overnight of growth factors. Cell viability was quantified over the last 7 hour period of a total 72 hour incubation period using the CellTiter 96 AQueous One Solution Cell Proliferation Assay reagent (Promega). Absorbance was measured using a microplate reader (TecanSpark) at a wavelength of 490 nm and a reference wavelength of 700 nm. Titration curves were generated by plotting the difference in absorbance (490 nm-700 nm) versus the dilution factor of the serum sample. Using a 4-Parameter logistic regression curve fit model the IC50 values, the dilution factor corresponding to half maximum OD values, were determined. Serum titers of samples at different time points were defined and depicted as the IC50 values of the curve fit. […]
# [9] = in vivo; cited from earlier work
# [10] = system: PC12 cells; assay: Neurite outgrowth bioassay for authenticity of recombinant NGF; format: cell-based; conditions: 5 days, 6.25-100 ng/ml NGF
# Description: FIG. 15B: PC12 cells were grown for 5 days with recombinant human mature NGF produced in mouse myeloma cells (R&D systems) (black squares) or with canine mature NGF produced in E. coli as described herein (grey circles). Cells were grown in the presence of 100, 50, 25, 12.5 and 6.25 ng/ml of recombinant NGF and the percentage of cells with defined neurite outgrowth determined.
# Chain of human beta-NGF (P01138 122-241): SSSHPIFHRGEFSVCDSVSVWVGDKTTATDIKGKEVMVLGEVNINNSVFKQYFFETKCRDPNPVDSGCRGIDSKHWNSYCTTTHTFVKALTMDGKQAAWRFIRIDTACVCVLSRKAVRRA
# T1 sequence (P01138 122-241): as above
molecule,measurement,setting,value
"CMV-Ntt830-E4 VLPs: modified CMV VLP of chimeric CMV polypeptide SEQ ID NO:10, four glutamic acid residues (E4) inserted into CMV-Ntt830",aggregated VLPs after anion exchange chromatography (NAGE loading wells),[1],no evidence of aggregated VLPs
same,melting temperature (melting point),[2],~57 °C
same,aggregate formation in presence of NaCl,[3],no evidence of aggregate formation
"Cc1cnc(NC(=O)C2=C(O)c3ccccc3S(=O)(=O)N2C)s1 [Inflacam®, meloxicam]",mean lameness score as compared to the Placebo group,"[4]; one day after kaolin-induced inflammation, 0.2 mg meloxicam/kg s.c. D43",reduced
bedinvetmab,"NGF-specific IgG GMT (standard equivalent concentration), peak",[5],3.68 µg/mL
same,NGF-specific IgG GMT,[6],10.9 µg/mL
same,NGF neutralizing antibody titers,[7],7.85 µg/mL
same,mean AUC for lameness scores,"[4]; 14 days post kaolin challenge, 7 dogs/group",15.36
same,peak NGF neutralizing titers,"[8]; study day 42, study group 1",3.93 µg/mL
same,dogs with levels below the detection limit of the TF-1-based NGF neutralization assay,"[8]; study day 56, 21 days after administration",6 of 7
same,mean titers (dashed line FIG. 24B),[9],1 µg/mL
same,peak antibody titer in serum after administration of bedinvetmab,[9],6.1 µg/mL
"canine mature NGF: recombinant canine mature NGF (SEQ ID NO:30) produced in E. coli, with C-terminal GCG motif (SEQ ID NO:31) or His-tag (SEQ ID NO:33) (protein, C-terminal GCG motif or His-tag) SSSHPVFHRGEFSVCDSVSVWVGDKTTATDIKGKEVMVLGEVNINNSVFKQYFFETKCRDPTPVDSGCRGIDSKHWNSYCTTTHTFVKALTMDGKQAAWRFIRIDTACVCVLSRKAGRRAG",activity at inducing neurite outgrowth compared with commercial mature NGF (R&D systems),[10],similarly active

# Reference: US20250281584A1, “ACTIVE VACCINATION FOR THE TREATMENT OF NGF-RELATED DISORDERS” (priority 2024, published 2025)
